Source: patent publication US8252793B2, “Bradykinin receptor agonists and uses thereof to treat ocular hypertension and glaucoma” (Alcon Research, Ltd., priority 2010, dated 2012)

Legend:
[1] = biological target: T1, recombinant human bradykinin B2 receptor (Homo sapiens, UniProt P30411); assay: [3H]-BK competition radioligand binding to human cloned B2 receptor (CHO cell membranes); conditions: 0.2 nM [3H]-bradykinin, CHO membranes, 60 min 23° C.; mean ± SEM or single value; Ki from IC50 by Cheng-Prusoff; read-out: [3H]-BK Binding to Human Cloned B2 Receptor (Ki)
T1 construct: expressed in transfected cells; host or cells: Chinese hamster ovary (CHO) cells, membrane homogenates
T1 sequence (P30411 1-391): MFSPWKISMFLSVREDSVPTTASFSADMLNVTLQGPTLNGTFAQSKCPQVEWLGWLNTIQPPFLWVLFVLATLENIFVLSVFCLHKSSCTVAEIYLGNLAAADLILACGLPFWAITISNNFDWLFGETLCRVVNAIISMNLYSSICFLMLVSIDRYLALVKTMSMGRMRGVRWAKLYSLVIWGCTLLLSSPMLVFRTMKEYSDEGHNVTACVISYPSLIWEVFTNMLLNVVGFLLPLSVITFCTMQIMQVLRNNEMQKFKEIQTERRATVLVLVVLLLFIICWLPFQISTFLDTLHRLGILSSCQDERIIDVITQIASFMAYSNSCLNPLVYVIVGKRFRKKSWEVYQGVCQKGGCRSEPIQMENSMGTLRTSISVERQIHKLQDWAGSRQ
Description: Chinese hamster ovary (CHO) cell membrane homogenates (2.5 μg protein) expressing the recombinant human bradykinin B2 receptor were incubated for 60 min at 23° C. with 0.2 nM [^3H]-bradykinin (95.5 Ci/mmole, PerkinElmer) in the absence or presence of the test compound in a buffer containing 50 mM Tris/HCl (pH 7.4), 0.2 g/L 1-10-phenanthroline and 0.1% BSA. All reagent and test compound additions to the assay plates were made using Biomek 3000 robotic workstations (Beckman Instruments, Fullerton, Calif.). Nonspecific binding was determined in the presence of 1 μM unlabeled bradykinin. Following the incubation, the assay was terminated by rapid filtration under vacuum through glass fiber filters (GF/C, PerkinElmer) presoaked with 0.3% polyethyleneimine and rinsed several times with an ice-cold 50 mM Tris-HCl buffer using a 96-sample cell harvester (Tomtec). The filters were air-dried and the radioactivity counted in a beta-scintillation counter (Topcount, PerkinElmer) using a scintillation cocktail (Microscint 20, PerkinElmer) (Sharif and Whiting, Neurochem. Int. 18: 89-96, 1991). Competitive binding inhibition curves were generated using a 7-point concentration—response of test compound in duplicate. Bradykinin peptide was also tested as an internal control in the assay. The data were analyzed using nonlinear, iterative curve-fitting to obtain the potency and intrinsic activities of the test agents as previously described (Sharif et al. J. Pharmacol. Exp. Ther. 286: 1094-1102, 1998; Sharif et al. Invest Ophthalmol. Vis. Sci. 39:2562-2571, 1998; Kelly et al. J. Pharmacol. Exp. Ther. 304: 238-245, 2003). Determined IC50 values were converted to Ki values using the standard Cheng-Prusoff equation.

[2] = biological target: T2, BK receptors in human ciliary muscle cells (h-CM) (Homo sapiens, UniProt P30411); assay: Functional assay measuring [Ca2+]i mobilization (FLIPR) in h-CM cells; assay type: cell-based; conditions: class symbols (in μM), read-out: CaM (EC50)
T2 construct: h-CM cells expressing BK receptors were seeded; endogenous in cells; host or cells: human ciliary muscle (h-CM) cells
T2 sequence (P30411 1-391): T1 sequence (P30411 1-391)
Description: On the day of the experiment, media was removed, cells were rinsed and 50 μL of serum-free media added. One vial of FLIPR Calcium Assay Kit dye was reconstituted in 50 mL of a FLIPR buffer consisting of Hank's Balanced Salt Solution (HBSS), 20 mM HEPES, and 2.5 mM probenecid, pH 7.4. Cells were loaded with the calcium-sensitive dye by addition of an equal volume (50 μL) to each well of the 96-well plate and incubated with dye for 1 h at 23° C. […] After this time, the test compound plate and cell plate were placed in a Fluorescence Imaging Plate Reader (FLIPR-Tetra®) instrument (Molecular Devices/MDSPharma, Sunnyvale, Calif.). At the beginning of an experimental run, a signal test was performed to check the basal fluorescence signal from the dye-loaded cells and the uniformity of the signal across the plate. […] An aliquot (25 μL) of the test compound was added to the existing 100 μL dye-loaded cells at a dispensing speed of 50 μL/sec. Intracellular calcium mobilization was measured by monitoring real-time changes in cellular fluorescence upon test compound addition. Fluorescence data were collected in real-time at 1.0 sec intervals for the first 60 seconds and at 6.0 second intervals for an additional 120 seconds. Baseline fluorescence readings were normalized across the plate and background-corrected from negative control wells. […] EC50 values were determined by 4-parameter nonlinear curve fitting of the concentration-response curve. Calibration of the instrument was performed using manufacturer's standard procedures.

[3] = tested on: primary human ciliary muscle cells (h-CM); assay: Total prostaglandin (PG) release from primary h-CM cells (EIA); assay type: cell-based; conditions: Homo sapiens, 1 h, 1 hour at 37° C., class symbols (in μM)
Description: BK agonist compounds of Formula 1 were evaluated for the ability to induce prostaglandin (PG) release from primary human ciliary muscle cells (h-CM). Briefly, h-CM cells were grown to confluence in FNC-coated 24-well culture plates and serum-starved (0.8% FBS) for 24 hours prior to the experiment. Cells were stimulated with a 9-pt concentration-response (0.1 nM-10 μM) of bradykinin or BK agonist for 1 hour at 37° C. with subsequent sample recovery and processing for total PG measurement. Total PG measurement was determined using a total Prostaglandin Screening EIA kit (cat#514012) purchased from Cayman Chemical (Ann Arbor, Mich.). The assay was conducted according to the package insert from the manufacturer.

Row | SMILES | Ki [1] | EC50 [2] | EC50 [3]
1 | Cc1cc(OCc2ccccn2)c2cccc(OCc3c(Cl)ccc(N(C)C(=O)CNC(=O)CCc4ccc(NS(C)(=O)=O)cc4)c3Cl)c2n1 [Compound 29, N-(2-((2,4-dichloro-3-(((2-methyl-4-(pyridin-2-ylmethoxy)quinolin-8-yl)oxy)methyl)phenyl)(methyl)amino)-2-oxoethyl)-3-(4-(methylsulfonamido)phenyl)propanamide] | 8 ± 3 nM | 0.1 to 1 µM | > 1 µM
2 | COc1nc2c(OCc3c(Cl)ccc(N(C)C(=O)CNC(=O)C4CCN(C5CCNC5)C4)c3Cl)cccc2n1Cc1ccccn1 (stereo not drawn) [Compound 22, N-(2-((2,4-dichloro-3-((2-methoxy-1-(pyridin-2-ylmethyl)-1H-benzo[d]imidazol-4-yloxy)methyl)phenyl)(methyl)amino)-2-oxoethyl)-1,3′-bipyrrolidine-3-carboxamide] | 160 ± 47 nM | < 0.1 µM | > 1 µM
3 | COc1nc2c(OCc3c(Cl)ccc(N(C)C(=O)CNC(=O)CNC4CCC(NC(C)=O)CC4)c3Cl)cccc2n1Cc1ccccn1 (stereo not drawn) [Compound 10, 2-(2-((4-acetamidocyclohexyl)amino)acetamido)-N-(2,4-dichloro-3-(((2-methoxy-1-(pyridin-2-ylmethyl)-1H-benzo[d]imidazol-4-yl)oxy)methyl)phenyl)-N-methylacetamide] | 76 ± 16 nM | < 0.1 µM | > 1 µM
4 | CNC(=O)N1CCN(CCCC(=O)NCC(=O)N(C)c2ccc(Cl)c(COc3cccc4c3nc(OC)n4Cc3ccccn3)c2Cl)CC1 [Compound 12] | 261 ± 195 nM | < 0.1 µM | > 1 µM
5 | CCc1nc2c(OCc3c(Cl)ccc(N(C)C(=O)CNC(=O)CCN4CCN(C(=O)NC)CC4)c3Cl)cccc2n1Cc1ccccn1 [Compound 19, 4-(3-((2-((2,4-dichloro-3-(((2-ethyl-1-(pyridin-2-ylmethyl)-1H-benzo[d]imidazol-4-yl)oxy)methyl)phenyl)(methyl)amino)-2-oxoethyl)amino)-3-oxopropyl)-N-methylpiperazine-1-carboxamide] | 262 ± 11 nM | < 0.1 µM | > 1 µM
6 | COc1nc2c(OCc3c(Cl)ccc(N(C)C(=O)CNC(=O)CCC4CN=C(N)NC4)c3Cl)cccc2n1Cc1ccccn1 (stereo not drawn) [Compound 63] | 1190 nM | < 0.1 µM | > 1 µM
7 | CNC(=O)C1CNCC(CC(=O)NCC(=O)N(C)c2ccc(Cl)c(COc3cccc4c3nc(OC)n4Cc3ccccn3)c2Cl)C1 (stereo not drawn) [Compound 81] | 108 nM | < 0.1 µM | > 1 µM
8 | COc1nc2c(OCc3c(Cl)ccc(N(C)C(=O)CNC(=O)CCN4CCC(NC(C)=O)CC4)c3Cl)cccc2n1Cc1ccccn1 [Compound 8, 3-(4-acetamidopiperidin-1-yl)-N-(2-((2,4-dichloro-3-(((2-methoxy-1-(pyridin-2-ylmethyl)-1H-benzo[d]imidazol-4-yl)oxy)methyl)phenyl)(methyl)amino)-2-oxoethyl)propanamide] | 68 ± 16 nM | < 0.1 µM | < 0.1 µM
9 | COc1nc2c(OCc3c(C)ccc(N(C)C(=O)CNC(=O)CCc4cnc5[nH]c(=O)oc5c4)c3C)cccc2n1Cc1ccccn1 [Compound 3, N-(2-((3-(((2-methoxy-1-(pyridin-2-ylmethyl)-1H-benzo[d]imidazol-4-yl)oxy)methyl)-2,4-dimethylphenyl)(methyl)amino)-2-oxoethyl)-3-(2-oxo-2,3-dihydrooxazolo[4,5-b]pyridin-6-yl)propanamide] | 273 nM | < 0.1 µM | > 1 µM
10 | CCc1nc2c(OCc3c(Cl)ccc(N(C)C(=O)CNC(=O)CCc4ccc(NC(C)=O)nc4)c3Cl)cccn2c1C(O)c1ccccn1 (stereo not drawn) [Compound 57] | 852 nM | 0.1 to 1 µM | > 1 µM
11 | CNC(=O)C1CCN(CCC(=O)NCC(=O)N(C)c2ccc(Cl)c(COc3cccc4c3nc(OC)n4Cc3ccccn3)c2Cl)CC1 [Compound 11] | 391 ± 35 nM | < 0.1 µM | > 1 µM

Further lines, results first:

Row | Ki [1] | EC50 [2] | EC50 [3] | SMILES
12 | 42 nM | < 0.1 µM | < 0.1 µM | CNC(=O)c1ccc(CCC(=O)NCC(=O)N(C)c2ccc(C)c(COc3cccc4c3nc(OC)n4Cc3ccccn3)c2C)cc1 [Compound 56, 4-(3-((2-((3-(((2-methoxy-1-(pyridin-2-ylmethyl)-1H-benzo[d]imidazol-4-yl)oxy)methyl)-2,4-dimethylphenyl)(methyl)amino)-2-oxoethyl)amino)-3-oxopropyl)-N-methylbenzamide]
13 | 544 nM | < 0.1 µM | 0.1 to 1 µM | COc1nc2c(OCc3c(Cl)ccc(N(C)C(=O)CNC(=O)COc4cnc(NC(C)=O)nc4)c3Cl)cccc2n1Cc1ccccn1 [Compound 75]
14 | 329 nM | < 0.1 µM | > 1 µM | CNCc1ccc(CCC(=O)NCC(=O)N(C)c2ccc(Cl)c(COc3cccc4c3nc(OC)n4Cc3ccccn3)c2Cl)cc1 [Compound 83]
15 | 40.3 nM | < 0.1 µM | < 0.1 µM | CNC(=O)c1ccc(CCC(=O)NCC(=O)N(C)c2ccc(Cl)c(COc3cccc4c3nc(OC)n4Cc3ccccn3)c2Cl)cn1 [Compound 64, 5-(3-((2-((2,4-dichloro-3-(((2-methoxy-1-(pyridin-2-ylmethyl)-1H-benzo[d]imidazol-4-yl)oxy)methyl)phenyl)(methyl)amino)-2-oxoethyl)amino)-3-oxopropyl)-N-methylpicolinamide]
16 | 59.5 nM | < 0.1 µM | 0.1 to 1 µM | CNC(=O)c1ccc(OCC(=O)NCC(=O)N(C)c2ccc(Cl)c(COc3cccc4c3nc(OC)n4Cc3ccccn3)c2Cl)cc1 [Compound 68]
17 | 98.4 nM | < 0.1 µM | < 0.1 µM | COc1nc2c(OCc3c(Cl)ccc(N(C)C(=O)CNC(=O)CCc4ccc(C(=O)NCCO)cc4)c3Cl)cccc2n1Cc1ccccn1 [Compound 65]
18 | 300 nM | < 0.1 µM | 0.1 to 1 µM | CNC(=O)C1=NCC(CCC(=O)NCC(=O)N(C)c2ccc(Cl)c(COc3cccc4c3nc(OC)n4Cc3ccccn3)c2Cl)CN1 (stereo not drawn) [Compound 41, 5-(3-((2-((2,4-dichloro-3-(((2-methoxy-1-(pyridin-2-ylmethyl)-1H-benzo[d]imidazol-4-yl)oxy)methyl)phenyl)(methyl)amino)-2-oxoethyl)amino)-3-oxopropyl)-N-methyl-1,4,5,6-tetrahydropyrimidine-2-carboxamide]
19 | 184 nM | < 0.1 µM | 0.1 to 1 µM | COc1nc2c(OCc3c(Cl)ccc(N(C)C(=O)CNC(=O)CCc4ccc(NC(=O)CN(C)C)nc4)c3Cl)cccc2n1Cc1ccccn1 [Compound 73]
